Laboratory results taken from patent US4214091A, “Antibiotic No. 2-200 and process for producing thereof” (Chugai Seiyaku Kabushiki Kaisha, priority 1977, dated 1980).
Converted amounts (≈) assume the structure as drawn.

Assays:
Assay in all cases: MIC, GAM agar, anaerobic
Format in all cases: cell-based
Bacteroides fragilis V-7 = conditions: V7, GAM agar, anaerobic, 37° C., 40 hours, inoculum 10^6/ML, read-out: Minimum inhibitory concentration (MIC)
Procedure: (§1) Minimum inhibitory concentration (MIC) for gram
(§2) Note: incubated at 37° C. for 40 hours on GAM agar medium (product
(§3) of Nippon Seiyaku) using anaerobic incubator. Inoculated with 10^6

Bacteroides fragilis V-8 = conditions: V8, GAM agar, anaerobic, 37° C., 40 hours, inoculum 10^6/ML, read-out: Minimum inhibitory concentration (MIC)
Procedure: as §1, §2, §3

Bacteroides fragilis V-6 = conditions: V6, GAM agar, anaerobic, 37° C., 40 hours, inoculum 10^6/ML, read-out: Minimum inhibitory concentration (MIC)
Procedure: as §1, §2, §3

[1] = tested on: Fusobacterium glutinosum 1006; conditions: 37° C., 40 hours, inoculum 10^6/ML, read-out: Minimum inhibitory concentration (MIC)
Procedure: as §1, §2, §3

MIC (Bacteroides fragilis V-7): 25 µg/mL (≈ 56.8 µM) | MIC (Bacteroides fragilis V-8): > 100 µg/mL | MIC (Bacteroides fragilis V-6): 100 µg/mL (≈ 227 µM) | MIC [1]: 6.25 µg/mL (≈ 14.2 µM)
Structure (SMILES): O=C(Cn1cnnn1)N[C@@H]1C(=O)N2C(C(=O)O)=C(CSc3nncs3)CS[C@H]12 [Ceftezole, reference compound]
